Values of other authors as cited in US20250127701A1, “Cosmetical use of a topically applicable rinse-of composition (RC)” (Wella Germany GmbH, priority 2023, published 2025).

Experiments:
[1] = molecular target: T1, olfactory receptor OR2AT4 (Homo sapiens, UniProt A6NND4); details: receptor expressed in the epithelium of human hair follicles
T1 sequence (A6NND4 1-320): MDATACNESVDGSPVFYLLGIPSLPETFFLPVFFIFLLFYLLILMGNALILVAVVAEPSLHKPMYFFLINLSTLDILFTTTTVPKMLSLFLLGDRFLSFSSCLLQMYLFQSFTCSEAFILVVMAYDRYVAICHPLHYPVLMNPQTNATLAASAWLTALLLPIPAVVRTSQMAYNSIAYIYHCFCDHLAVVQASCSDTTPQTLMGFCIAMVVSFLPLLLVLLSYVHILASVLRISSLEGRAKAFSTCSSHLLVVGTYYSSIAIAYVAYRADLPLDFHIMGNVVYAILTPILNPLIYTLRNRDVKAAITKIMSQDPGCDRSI

[2] = system: hair shaft, hair matrix keratinocytes; details: studies have shown

In the case of `CC1=CCC(CCC(C)C(C)O)C1(C)C` (stereo not shown) [Sandal pentanol, 3-methyl-5-(2,2,3-trimethylcyclopent-3-en-1-yl)pentan-2-ol], the “Effect on the olfactory receptor OR2AT4” value [1] is given as “stimulatory effect”.
For `Cn1c(=O)c2c(ncn2C)n(C)c1=O` [caffeine, 1,3,7-trimethylxanthine], the “Effect on anagen duration” value [2] is given as “prolonges anagen duration”, the “Effect on hair shaft elongation” value [2] is given as “enhances the hair shaft elongation” and the “Effect on proliferation of hair matrix keratinocytes” value [2] is given as “stimulates the proliferation of hair matrix keratinocytes”.
